These results are taken from PMC10226132, “First-in-Class Selective Inhibitors of the Lysine Acetyltransferase KAT8” (Journal of Medicinal Chemistry, 2023).

Structures are written as SMILES. Read-outs that look alike come from different tables or passages of the source. Some results are limits rather than exact numbers.

Holding throughout (format): biochemical
One experiment concerns the target T1, KAT8 (Homo sapiens, UniProt Q9H7Z6).
T1 construct: using the previously purified KAT8 (173–458, 5 nM); 6xHis tag with TEV protease cleavage site (N, cleaved yes); made in house; host or cells: E. coli BL21(DE3)
T1 sequence (Q9H7Z6 173-458): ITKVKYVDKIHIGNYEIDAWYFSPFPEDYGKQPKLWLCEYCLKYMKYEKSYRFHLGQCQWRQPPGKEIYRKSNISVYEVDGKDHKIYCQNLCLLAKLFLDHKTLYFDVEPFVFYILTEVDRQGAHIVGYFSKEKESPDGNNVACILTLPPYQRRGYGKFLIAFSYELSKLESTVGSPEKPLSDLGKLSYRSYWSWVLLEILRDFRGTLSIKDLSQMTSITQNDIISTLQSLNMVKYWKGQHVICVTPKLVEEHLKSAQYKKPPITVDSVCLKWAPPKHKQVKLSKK
Nature of the experiment: Radioactive KAT8 inhibition assay. As for the experimental part: Purified KAT8 was incubated with the relevant inhibitor (1% DMSO final) in a 2-fold serial dilution starting at 200 μM for 20 min at rt. Then, [^3H]Ac-CoA and biotinylated peptide were added to a total assay volume of 50 μL and the reaction mixture was incubated at rt for 4 h. The reaction was stopped, and the mixture was transferred to a 96-well streptavidin scintillant coated FlashPlate (Perkin Elmer) and incubated for 60 min at rt. The FlashPlate was washed with 0.1% Tween-20, and the liquid scintillation counting (MicroBeta Microplate Counter, Perkin Elmer) was employed to measure the radioactive signal. Experiments were performed in biological triplicates. Signal reduction compared to control was plotted (as inhibition percentage) as a function of compound concentration and fitted by nonlinear regression (GraphPad Prism 8.0) finally yielding the IC50 values.

A further experiment concerns the target T2, KAT3B (Homo sapiens, UniProt Q09472).
T2 construct: KAT3B (aa 1284–1672, 1 nM); purchased Reaction Biology Corporation
T2 sequence (Q09472 1284-1672): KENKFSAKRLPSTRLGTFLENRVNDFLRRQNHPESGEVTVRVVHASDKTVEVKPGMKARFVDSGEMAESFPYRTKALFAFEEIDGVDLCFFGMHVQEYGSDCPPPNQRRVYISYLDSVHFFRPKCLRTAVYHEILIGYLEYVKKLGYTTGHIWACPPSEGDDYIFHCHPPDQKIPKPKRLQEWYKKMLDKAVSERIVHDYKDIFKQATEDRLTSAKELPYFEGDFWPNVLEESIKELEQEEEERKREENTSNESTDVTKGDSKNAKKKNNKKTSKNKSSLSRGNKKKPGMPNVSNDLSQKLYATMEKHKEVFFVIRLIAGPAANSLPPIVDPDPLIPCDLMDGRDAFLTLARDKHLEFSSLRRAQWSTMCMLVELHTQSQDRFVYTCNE
Description: HotSpot KAT assay, KAT3B. The conditions noted are these: read-out: IC50 KAT3B (1 nM); enzyme 1 nM; NI = no inhibition at 200 μM; mean ± SD of three independent experiments. As to the method:
The effects of the compounds on other KATs were determined using the HotSpot KAT assay (Reaction Biology Corporation, Malvern, PA, USA) according to the supplier’s procedure. […] Histone peptide acetylation was assessed by liquid scintillation counting using a Tri-Carb 2800TR Liquid Scintillation Analyzer (Perkin Elmer). Experiments were performed in biological triplicates. Signal reduction compared to control was plotted (as inhibition percentage) as a function of compound concentration. In cases in which an IC50 was calculated, the values were fitted by nonlinear regression (GraphPad Prism 8.0).

For a further experiment, the target named is T3, KAT2B (Homo sapiens, UniProt Q92831).
T3 construct: KAT2B (aa 492–658, 25 nM); purchased Reaction Biology Corporation
Nature of the experiment: HotSpot KAT assay, KAT2B. The conditions noted are these: enzyme 25 nM; NI = no inhibition at 200 μM; mean ± SD of three independent experiments. As to the method: The effects of the compounds on other KATs were determined using the HotSpot KAT assay (Reaction Biology Corporation, Malvern, PA, USA) according to the supplier’s procedure. The recombinant catalytic domains of human KAT2A (aa 323–837, 15 nM), KAT2B (aa 492–658, 25 nM), KAT3B (aa 1284–1672, 1 nM), KAT6A (aa 488–778, 10 nM), KAT6B (aa 657–1069, 10 nM), and full length human KAT5 (25 nM) and KAT7 (25 nM) were used. Each enzyme was incubated with the relevant histone peptide [H3 peptide for KAT2A, KAT2B, KAT3B, KAT6A, and KAT7 (2.5–5 μM, depending on the KAT isoform); H2A peptide for KAT5 (1.25 μM); H4 peptide for KAT6B (2.5 μM)] as a substrate and radio-isotope-labeled [^3H]Acetyl-CoA (0.2–1.5 μM, depending on the KAT isoform) as an acetyl donor in the assay buffer [50 mM Tris–HCl (pH 8.0), 50 mM NaCl, 0.1 mM EDTA, 1 mM DTT, 0.1 mM PMSF, 1% DMSO] for 1 h at 30 °C in the presence or absence of various compounds (1% DMSO final) titrated in a 2-fold serial dilution starting at 200 μM. Histone peptide acetylation was assessed by liquid scintillation counting using a Tri-Carb 2800TR Liquid Scintillation Analyzer (Perkin Elmer). Experiments were performed in biological triplicates. Signal reduction compared to control was plotted (as inhibition percentage) as a function of compound concentration. In cases in which an IC50 was calculated, the values were fitted by nonlinear regression (GraphPad Prism 8.0).

Where [1] appears, read: read-out: IC50 KAT8 (5 nM), enzyme 5 nM, 2-fold serial dilution from 200 μM, NI = no inhibition at 200 μM, mean ± SD of three independent experiments.

T3 sequence (Q92831 492-658): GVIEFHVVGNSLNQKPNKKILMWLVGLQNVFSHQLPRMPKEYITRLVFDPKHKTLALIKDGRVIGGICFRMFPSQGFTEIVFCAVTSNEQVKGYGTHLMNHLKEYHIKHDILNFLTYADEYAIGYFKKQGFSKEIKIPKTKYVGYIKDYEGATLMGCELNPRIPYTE

For orientation: IC50 means the concentration needed to halve the response being measured. `CC1=NN(c2ccc(C(=O)O)cc2)C(=O)/C1=C\c1ccn[nH]1` [Compound 24, (Z)-4-(4-((1H-Pyrazol-5-yl)methylene)-3-methyl-5-oxo-4,5-dihydro-1H-pyrazol-1-yl)benzoic Acid]: the IC50 is 44.1 ± 3 µM on KAT8 (setting [1]), greater than 200 µM on KAT3B and greater than 200 µM against KAT2B.

As to `CC1=NN(c2ccc(C(=O)O)cc2)C(=O)C1` [Compound 18], on KAT8 (setting [1]), the IC50 is greater than 200 µM.

Regarding `CC1=NN(c2ccc(C(=O)O)cc2)C(=O)/C1=C\c1c[nH]c2ccccc12` [Compound 27, (Z)-4-(4-((1H-Indol-3-yl)methylene)-3-methyl-5-oxo-4,5-dihydro-1H-pyrazol-1-yl)benzoic Acid], the IC50 on KAT8 (setting [1]) is 38.1 ± 2.9 µM; on KAT3B, 4.6 ± 0.2 µM; on KAT2B it was greater than 200 µM.

In the case of `CC1=NN(c2ccc(C(=O)O)cc2)C(=O)/C1=C\c1cc(C(=O)c2ccccc2F)c[nH]1` [Compound 8, (Z)-4-(4-((4-(2-Fluorobenzoyl)-1H-pyrrol-2-yl)methylene)-3-methyl-5-oxo-4,5-dihydro-1H-pyrazol-1-yl)benzoic Acid], on KAT8 (setting [1]), the IC50 was greater than 150 µM. Same read-out and setting: with `CC1=NN(c2ccc(C(=O)O)cc2)C(=O)/C1=C\c1cc(C(=O)c2ccc(Cl)cc2)c[nH]1` [Compound 7, (Z)-4-(4-((4-(4-Chlorobenzoyl)-1H-pyrrol-2-yl)methylene)-3-methyl-5-oxo-4,5-dihydro-1H-pyrazol-1-yl)benzoic Acid] the figure was greater than 200 µM. The same measure, in the same setting: with `CC1=NN(c2ccccc2)C(=O)/C1=C\c1cc(C(=O)c2ccccc2)c[nH]1` [Compound 16, (Z)-4-((4-Benzoyl-1H-pyrrol-2-yl)methylene)-5-methyl-2-phenyl-2,4-dihydro-3H-pyrazol-3-one] the figure was greater than 200 µM; with `CC1=NN(c2ccc(C(=O)O)cc2)C(=O)/C1=C\c1cc(C(=O)c2cccc(Cl)c2)c[nH]1` [Compound 6, (Z)-4-(4-((4-(3-Chlorobenzoyl)-1H-pyrrol-2-yl)methylene)-3-methyl-5-oxo-4,5-dihydro-1H-pyrazol-1-yl)benzoic Acid], greater than 150 µM; with `CC1=NN(c2ccc(C(=O)O)cc2)C(=O)/C1=C\c1cc(C(=O)c2ccccc2O)c[nH]1` [Compound 12, (Z)-4-(4-((4-(2-Hydroxybenzoyl)-1H-pyrrol-2-yl)methylene)-3-methyl-5-oxo-4,5-dihydro-1H-pyrazol-1-yl)benzoic Acid], greater than 200 µM.

In the case of `CC1=NN(c2ccc(C(=O)NCCO)cc2)C(=O)/C1=C\c1ccc[nH]1` [Compound 40, (Z)-4-(4-((1H-Pyrrol-2-yl)methylene)-3-methyl-5-oxo-4,5-dihydro-1H-pyrazol-1-yl)-N-(2-hydroxyethyl)benzamide], the IC50 at KAT8 (setting [1]) came to 52.2 ± 3.2 µM. Turning to `CC(C)C1=NN(c2ccc(C(=O)O)cc2)C(=O)/C1=C\c1cc(C(=O)c2ccccc2[N+](=O)[O-])c[nH]1` [Compound 15, (Z)-4-(3-Isopropyl-4-((4-(2-nitrobenzoyl)-1H-pyrrol-2-yl)methylene)-5-oxo-4,5-dihydro-1H-pyrazol-1-yl)benzoic Acid], the IC50 was greater than 150 µM at KAT8 and greater than 200 µM against KAT2B. Turning to `CC1=NN(c2ccc(C(=O)O)cc2)C(=O)/C1=C\c1cc(C(=O)c2ccc([N+](=O)[O-])cc2)c[nH]1` [Compound 4, (Z)-4-(3-Methyl-4-((4-(4-nitrobenzoyl)-1H-pyrrol-2-yl)methylene)-5-oxo-4,5-dihydro-1H-pyrazol-1-yl)benzoic Acid], the IC50 at KAT8 (setting [1]) is greater than 200 µM. Still for that read-out and setting: with `CC1=NN(c2ccc(C(=O)O)cc2)C(=O)/C1=C\c1cc(C(=O)c2cccc(F)c2)c[nH]1` [Compound 9, (Z)-4-(4-((4-(3-Fluorobenzoyl)-1H-pyrrol-2-yl)methylene)-3-methyl-5-oxo-4,5-dihydro-1H-pyrazol-1-yl)benzoic Acid] the figure was greater than 200 µM. With `COc1ccccc1C(=O)c1c[nH]c(/C=C2\C(=O)N(c3ccc(C(=O)O)cc3)N=C2C)c1` [Compound 10, (Z)-4-(4-((4-(2-Methoxybenzoyl)-1H-pyrrol-2-yl)methylene)-3-methyl-5-oxo-4,5-dihydro-1H-pyrazol-1-yl)benzoic Acid], the concentration for half-maximal inhibition (IC50) at KAT8 is greater than 150 µM. For `CC1=NN(c2ccc(C(=O)NCCCN3CCCC3)cc2)C(=O)/C1=C\c1ccc[nH]1` [Compound 41, (Z)-4-(4-((1H-Pyrrol-2-yl)methylene)-3-methyl-5-oxo-4,5-dihydro-1H-pyrazol-1-yl)-N-(3-(pyrrolidin-1-yl)propyl)benzamide], the IC50 at KAT8 (setting [1]) was greater than 200 µM. Same read-out and setting: the result for `CC1=NN(c2ccc(S(=O)(=O)O)cc2)C(=O)/C1=C\c1ccc[nH]1` [Compound 42, (Z)-4-(4-((1H-Pyrrol-2-yl)methylene)-3-methyl-5-oxo-4,5-dihydro-1H-pyrazol-1-yl)benzenesulfonic Acid] reads 54.7 ± 4 µM; that for `CC1=NN(c2ccc(C(=O)O)cc2)C(=O)/C1=C\c1cc(C(=O)c2cccc(C)c2)c[nH]1` [Compound 14, (Z)-4-(3-Methyl-4-((4-(3-methylbenzoyl)-1H-pyrrol-2-yl)4ethylene)-5-oxo-4,5-dihydro-1H-pyrazol-1-yl)benzoic Acid], greater than 200 µM; that for `COc1cccc(C(=O)c2c[nH]c(/C=C3\C(=O)N(c4ccc(C(=O)O)cc4)N=C3C)c2)c1` [Compound 11, (Z)-4-(4-((4-(3-Methoxybenzoyl)-1H-pyrrol-2-yl)methylene)-3-methyl-5-oxo-4,5-dihydro-1H-pyrazol-1-yl)benzoic Acid], greater than 200 µM.

Regarding `CC1=NN(c2ccc(C(=O)O)cc2)C(=O)/C1=C\c1cc(C(=O)c2cccc([N+](=O)[O-])c2)c[nH]1` [Compound 3, (Z)-4-(3-Methyl-4-((4-(3-nitrobenzoyl)-1H-pyrrol-2-yl)methylene)-5-oxo-4,5-dihydro-1H-pyrazol-1-yl)benzoic Acid], the IC50 on KAT8 (setting [1]) was greater than 150 µM. With `CC1=NN(c2ccc(S(N)(=O)=O)cc2)C(=O)/C1=C\c1ccc[nH]1` [Compound 43, (Z)-4-(4-((1H-Pyrrol-2-yl)methylene)-3-methyl-5-oxo-4,5-dihydro-1H-pyrazol-1-yl)benzenesulfonamide], the 50% inhibitory concentration (IC50) at KAT8 (setting [1]) is 59.4 ± 3.7 µM. On the same count and under the same terms, the result for `CC1=NN(c2ccccc2)C(=O)/C1=C\c1cc(C(=O)c2ccccc2[N+](=O)[O-])c[nH]1` [Compound 17, (Z)-5-Methyl-4-((4-(2-nitrobenzoyl)-1H-pyrrol-2-yl)methylene)-2-phenyl-2,4-dihydro-3H-pyrazol-3-one] reads greater than 200 µM.
